Reference: US6846807B1, “Colorectal neoplasia prophylaxis” (Board of Regents, The University of Texas System, priority 2003, dated 2005)

Tests used:
[1] = system: chick embryo chorioallantoic membranes (CAM); conditions: cited from earlier work
[2] = system: Smad3 mutant mice; test: Colorectal tumor development in Smad3 mutant mice given antibiotics in drinking water; type: in vivo
Protocol: I. Orally-delivered aminoglycosides reduce development of colon cancer in animal models predisposed to colon neoplasia. Smad3 mutant and APC/MIN mice are fed on a standard laboratory diet, with aminoglycoside antibiotics added to the water. […] Metronidazole was diluted in sterile drinking water to a final concentration of 0.5 mg/ml. The same concentrations are used for either combined or separate drug trials.
Smad3 mutant mice are maintained in 129Sv strain; APC/MIN mice are maintained in C57BL/6J. Both Smad3 mutant and APC/MIN mice are started on antibiotics at 5 weeks of age (range: 4-6 weeks). Mice are monitored and scored for survival and visible rectal tumors. Mice are sacrificed when showing severe distress (typically rectal prolapse with significant dehydration,. hypokinesis, cachexia). At sacrifice mice are dissected and their overall state assessed. Large intestines were harvested, opened longitudinally, and tumor number, location, and size recorded.

[3] = system: colorectal adenomas; test: Double-blind, placebo-controlled trial of colorectal adenomas in patients with previous colorectal cancer; type: in vivo, human; conditions: daily use of 1 or 2 g, patients with a history of colorectal cancer
Source text: III. Orally-delivered aminoglycosides reduce development of colorectal adenomas in patients with previous colorectal cancer. […] We determine the proportion of patients with adenomas, the number of recurrent adenomas, and the time to the development of adenoma between randomization and subsequent colonoscopic examinations. Relative risks are adjusted for age, sex, cancer stage, the number of colonoscopic examinations, and the time to first colonoscopy.

[4] = system: colorectal polyps; test: Double-blind, placebo-controlled study of colorectal polyps in patients with familial adenomatous polyposis; type: in vivo, human; conditions: 1 or 2 g/day orally, after six months, change from base line
Protocol: II. […] All patients undergo endoscopy at the beginning and end of the study. The number and size of polyps is determined from photographs and videotapes; the response to treatment is expressed as the mean percent change from base line.

[5] = system: cultured human endothelial cells; conditions: cited from earlier work
[6] = system: phospholipase C (PLC); conditions: cited from earlier work
[7] = system: cultured angiogenin-secreting tumor cells; conditions: injected, mice; cited from earlier work
[8] = system: azoxymethane (AOM) and 1,2-dimethyl hydrazine (DMH)-induced colon cancers; conditions: AOM and DMH chemical carcinogenesis models; cited from earlier work

[H]/N=C(/N)N[C@H]1[C@H](O)[C@@H](O)[C@H](O[C@@H]2O[C@@H](C)[C@](O)(C=O)[C@H]2O[C@@H]2O[C@@H](CO)[C@H](O)[C@@H](O)[C@@H]2NC)[C@@H](N/C(N)=N\[H])[C@@H]1O [streptomycin]
angiogenin-induced angiogenesis / anti-angiogenic activity [1]: lack anti-angiogenic activity

Cc1ncc([N+](=O)[O-])n1CCO [metronidazole]
tumor development compared with non-treated controls ([2]; 0.5 mg/ml in drinking water): not significantly different from non-treated controls

NC[C@@H]1O[C@H](O[C@H]2[C@@H](O)[C@H](O[C@@H]3[C@@H](O)[C@H](N)C[C@H](N)[C@H]3O[C@H]3O[C@H](CO)[C@@H](O)[C@H](O)[C@H]3N)O[C@@H]2CO)[C@H](N)[C@@H](O)[C@@H]1O [paromomycin]
occurrence of new colorectal adenomas [3]: decreases the occurrence of new colorectal adenomas | angiogenin-induced angiogenesis / anti-angiogenic activity [1]: lack anti-angiogenic activity | reduction in the mean number of colorectal polyps [4]: ~30% | reduction in the polyp burden (the sum of polyp diameters) [4]: ~30%

COc1ccc2c(c1)CC[C@@H]1[C@@H]2CC[C@]2(C)[C@@H](NCCCCCCN3C(=O)C=CC3=O)CC[C@@H]12 [U-73122]
angiogenin-induced cell proliferation [5]: similarly inhibited angiogenin-induced cell proliferation and angiogenesis | PLC inhibition [6]: PLC inhibitor | angiogenin-induced angiogenesis / anti-angiogenic activity [1]: similarly inhibited angiogenin-induced cell proliferation and angiogenesis

gentamicin
angiogenin-induced angiogenesis / anti-angiogenic activity [1]: lack anti-angiogenic activity

NCC[C@H](O)C(=O)N[C@@H]1C[C@H](N)[C@@H](O[C@H]2O[C@H](CN)[C@@H](O)[C@H](O)[C@H]2O)[C@H](O)[C@H]1O[C@H]1O[C@H](CO)[C@@H](O)[C@H](N)[C@H]1O [amikacin]
angiogenin-induced angiogenesis / anti-angiogenic activity [1]: lack anti-angiogenic activity

neomycin
angiogenin-induced cell proliferation [5]: able to reduce angiogenin-induced cell proliferation and angiogenesis | occurrence of new colorectal adenomas [3]: decreases the occurrence of new colorectal adenomas | mice in which development of tumors was prevented ([2]; oral treatment, at 24 weeks, 9 of 10 untreated mice developed colorectal tumors): 11 of 12 | growth of transplanted angiogenin-secreting tumor cells [7]: able to reduce growth | PLC inhibition [6]: inhibits PLC | incidence of colon adenocarcinomas [8]: may actually increase the incidence of colon adenocarcinomas | angiogenin-induced angiogenesis / anti-angiogenic activity [1]: able to reduce angiogenin-induced cell proliferation and angiogenesis | reduction in the mean number of colorectal polyps [4]: ~30% | reduction in the polyp burden (the sum of polyp diameters) [4]: ~30%
